Measurements from ChEMBL document CHEMBL3132826, “Investigation of a tetrahydroisoquinoline scaffold as dual-action steroid sulfatase inhibitors generated by parallel solid-phase synthesis” (Medchemcomm, 2013).

Assays:
[1] = molecular target: T1, Steryl-sulfatase (Homo sapiens) (UniProt P08842); assay: Inhibition of STS (unknown origin) expressed in HEK-293 cells assessed as transformation of [3H]-E1S into E1 at 1 uM by […]; assay type: cell-based; details: HEK293
T1 sequence (whole entry): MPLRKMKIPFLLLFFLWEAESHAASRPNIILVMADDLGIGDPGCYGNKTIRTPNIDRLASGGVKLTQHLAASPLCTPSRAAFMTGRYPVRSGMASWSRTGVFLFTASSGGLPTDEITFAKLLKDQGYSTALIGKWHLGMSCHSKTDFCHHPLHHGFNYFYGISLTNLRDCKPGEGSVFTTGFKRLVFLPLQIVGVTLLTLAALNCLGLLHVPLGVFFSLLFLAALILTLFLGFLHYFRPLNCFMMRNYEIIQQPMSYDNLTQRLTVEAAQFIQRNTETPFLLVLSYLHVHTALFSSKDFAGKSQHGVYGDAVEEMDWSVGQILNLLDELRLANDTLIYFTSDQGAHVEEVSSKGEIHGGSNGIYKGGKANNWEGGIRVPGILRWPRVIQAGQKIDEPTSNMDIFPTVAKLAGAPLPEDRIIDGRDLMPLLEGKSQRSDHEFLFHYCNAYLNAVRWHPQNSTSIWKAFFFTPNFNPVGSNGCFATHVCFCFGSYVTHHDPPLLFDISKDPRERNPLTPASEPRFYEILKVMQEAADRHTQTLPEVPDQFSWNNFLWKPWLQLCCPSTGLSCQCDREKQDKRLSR

[2] = molecular target: T1, Steryl-sulfatase (Homo sapiens); assay: Inhibition of STS (unknown origin) expressed in HEK-293 cells assessed as transformation of [3H]-E1S into E1 at 0.1 uM by […]; assay type: cell-based; details: HEK293
[3] = Lipophilicity, log P of the compound; assay type: physicochemical; details: octanol/water
[4] = Estrogenic activity in human Saos2 cells assessed as increase in alkaline phosphatase activity at 1 nM; assay type: ADME, cell-based; details: saos-2, 0.001 µM
MCF7 [5] = assay: Estrogenic activity in human MCF7 cells assessed as cell proliferation at 0.1 uM by MTS assay relative to basal level; assay type: ADME, cell-based; details: mcf7, 0.1 µM
[6] = Estrogenic activity in human Saos2 cells assessed as cell proliferation at 1 uM; assay type: ADME, cell-based; details: saos-2, 1 µM
MCF7 [7] = assay: Estrogenic activity in human MCF7 cells assessed as cell proliferation at 0.01 uM by MTS assay relative to basal level; assay type: ADME, cell-based; details: mcf7, 0.01 µM
MCF7 [8] = assay: Estrogenic activity in human MCF7 cells assessed as cell proliferation at 1 uM by MTS assay relative to basal level; assay type: ADME, cell-based; details: mcf7, 1 µM
MCF7 [9] = assay: Estrogenic activity in human MCF7 cells assessed as cell proliferation at 0.1 nM by MTS assay relative to basal level; assay type: ADME, cell-based; details: mcf7, 0.0001 µM

inhibition [1] [%] | inhibition [2] [%] | logP [3] | Activity [4] [%] | Structure (SMILES) | Activity (MCF7 [5]) [%] | Activity [6] | Activity (MCF7 [7]) [%] | Activity (MCF7 [8]) [%] | Activity (MCF7 [9]) [%]
83.6 | 66.9 | 3.08 | – | CCN(Cc1ccccc1)c1ccc(C(=O)N2CCc3ccc(OS(N)(=O)=O)cc3C2)cc1 | – | – | – | – | –
– | – | – | 133 | CC(C)CCN(CCC(C)C)c1ccc(C(=O)N2CCc3ccc(O)cc3C2)cc1 | 0 | Toxic | 0 | 0 | –
– | – | – | 152 | CCN(Cc1ccc(F)cc1)c1ccc(C(=O)N2CCc3ccc(O)cc3C2)cc1 | 0 | Toxic | 0 | 4.8 | –
84.7 | 36.6 | 3.07 | – | CCCN(CCC)c1ccc(C(=O)N2CCc3ccc(OS(N)(=O)=O)cc3C2)cc1 | – | – | – | – | –
– | – | – | – | CN(CCCN1CCCCC1)c1ccc(C(=O)N2CCc3ccc(O)cc3C2)cc1 | 0 | – | 0 | 0 | –
– | – | – | – | CCN(Cc1cccc(Br)c1)c1cccc(C(=O)N2CCc3ccc(O)cc3C2)c1 | 0 | – | 0 | 8.5 | –
– | – | – | – | CCN(Cc1ccc(Br)cc1)c1cccc(C(=O)N2CCc3ccc(O)cc3C2)c1 | 0 | – | 0 | 5.5 | –
– | – | – | – | CN(CCN1CCCCC1)c1cccc(C(=O)N2CCc3ccc(O)cc3C2)c1 | 0 | – | 0 | 5.3 | –
– | – | – | – | CN(C)CCCN(Cc1ccccc1)c1cccc(C(=O)N2CCc3ccc(O)cc3C2)c1 | 0 | – | 0 | 5.4 | –
– | – | – | 143 | CC/C(=C(\c1ccccc1)c1ccc(OCCN(C)C)cc1)c1ccccc1 [TAMOXIFEN] | – | – | – | – | –
– | – | – | – | CN(C)CCN(CCN(C)C)c1cccc(C(=O)N2CCc3ccc(O)cc3C2)c1 | 14.6 | – | 0 | 84.1 | –
– | – | – | – | CCN(Cc1ccncc1)c1cccc(C(=O)N2CCc3ccc(O)cc3C2)c1 | 0 | – | 6 | 12.8 | –
– | – | – | – | O=C(c1ccc(N(CCCO)Cc2ccccc2)cc1)N1CCc2ccc(O)cc2C1 | 0 | – | 0 | 4 | –
– | – | – | 133 | O=C(c1ccc(N2CCc3ccccc3C2)cc1)N1CCc2ccc(O)cc2C1 | 1.7 | Toxic | 0 | 6.3 | –
– | – | – | 148 | C[C@]12CC[C@@H]3c4ccc(O)cc4CC[C@H]3[C@@H]1CC[C@@H]2O [ESTRADIOL] | – | 144% | – | – | 75.6
– | – | – | – | CN(CCCN1CCCCC1)c1cccc(C(=O)N2CCc3ccc(O)cc3C2)c1 | 2.5 | – | 2.9 | 19 | –
– | – | – | – | CCN(Cc1cccnc1)c1cccc(C(=O)N2CCc3ccc(O)cc3C2)c1 | 0 | – | 0 | 0 | –
– | – | – | – | CCCN(Cc1ccccc1)c1cccc(C(=O)N2CCc3ccc(O)cc3C2)c1 | 0 | – | 1.6 | 20.8 | –
– | – | – | 147 | CCN(Cc1ccccn1)c1ccc(C(=O)N2CCc3ccc(O)cc3C2)cc1 | 0 | 140% | 2.7 | 84 | –
81.3 | 41.4 | 3.87 | – | NS(=O)(=O)Oc1ccc2c(c1)CN(C(=O)c1ccc(N3CCC(Cc4ccccc4)CC3)cc1)CC2 | – | – | – | – | –
– | – | – | – | CCN(Cc1ccccn1)c1cccc(C(=O)N2CCc3ccc(O)cc3C2)c1 | 58.4 | – | 10.6 | 87.3 | –
– | – | – | 133 | CCN(Cc1ccncc1)c1ccc(C(=O)N2CCc3ccc(O)cc3C2)cc1 | 0 | Toxic | 0 | 0 | –
– | – | – | – | CN(C)CCN(Cc1ccccc1)c1ccc(C(=O)N2CCc3ccc(O)cc3C2)cc1 | 6.3 | – | 9.6 | 4.6 | –
– | – | – | 133 | O=C(c1ccc(N(Cc2ccccc2)Cc2ccco2)cc1)N1CCc2ccc(O)cc2C1 | 0 | Toxic | 0 | 7.7 | –
– | – | – | – | O=C(c1ccc(N(CCO)Cc2ccccc2)cc1)N1CCc2ccc(O)cc2C1 | 14.8 | – | 8.4 | 34.6 | –
– | – | – | 133 | CCN(Cc1cccnc1)c1ccc(C(=O)N2CCc3ccc(O)cc3C2)cc1 | 2 | Toxic | 0 | 0 | –
– | – | – | – | CCN(Cc1ccc(Br)cc1)c1ccc(C(=O)N2CCc3ccc(O)cc3C2)cc1 | 10.6 | – | 0 | 76.7 | –
– | – | – | – | CN(C)CCCN(Cc1ccccc1)c1ccc(C(=O)N2CCc3ccc(O)cc3C2)cc1 | 18.3 | – | 19.4 | 25.9 | –
– | – | – | – | CCN(Cc1cccc(Br)c1)c1ccc(C(=O)N2CCc3ccc(O)cc3C2)cc1 | 0 | – | 1.8 | 18.3 | –
– | – | – | – | CN(CCN1CCCCC1)c1ccc(C(=O)N2CCc3ccc(O)cc3C2)cc1 | 4.6 | – | 2.1 | 12.2 | –
